Assay results as given in US20110166112A1, “METHOD FOR STIMULATING PLATELET PRODUCTION” (Eisai, Inc., priority 2009, published 2011).

System: subjects with chronic ITP
Assay: Combined 28-day and 6-month rollover studies of E5501: safety (TEAEs, serious TEAEs, thromboembolic events, neoplasms, liver toxicity, discontinuations)
Assay type: in vivo, human
Conditions: N=22
Description: Primary Endpoint: The primary endpoint was to assess the safety and tolerability to E5501, including AEs and clinical laboratory parameters, over the 6 additional months of treatment.
In this way, safety data reflect each subject's complete duration of exposure to E5501 starting with lead-in the previous study and continuing into the current study.
Following Protocol Amendment 4, the current study contained a flexible dose regimen; therefore, this study was considered to have an open-label, uncontrolled, single-arm design. […] This was the method used to assess safety. • Grouping method B was based on both treatment received and day 28 platelet response to study drug in Study the previous study. This was the method used for the analysis of efficacy for the FAS and the SE population.
Overall Adverse Events. […] The primary focus is on summary statistics for the entire safety population and provides an overall safety profile for E5501. The summary statistics for each group, e.g., lower ⅓, middle ⅓ and upper ⅓ average daily dose levels, is secondary and provides further safety information across the 3 dose levels.

O=C(Nc1nc(-c2cc(Cl)cs2)c(N2CCN(C3CCCCC3)CC2)s1)c1cnc(N2CCC(C(=O)O)CC2)c(Cl)c1 [E5501, 1-(3-chloro-5-{[4-(4-chlorothiophen-2-yl)-5-(4-cyclohexylpiperazin-1-yl)thiazol-2-yl]carbamoyl}pyridine-2-yl)piperidine-4-carboxylic acid]
Serious TEAE, n of subjects (Lower ⅓ dose (2.5-<8.85 mg)): 1
Serious treatment-related TEAEs, % of subjects (Lower ⅓ dose (2.5-<8.85 mg)): (4.5) %
Serious treatment-related TEAEs, n of subjects (Lower ⅓ dose (2.5-<8.85 mg)): 1
Severe (grade 3-4) TEAEs, % of subjects (Lower ⅓ dose (2.5-<8.85 mg)): (18.2) %
Severe (grade 3-4) TEAEs, n of subjects (Lower ⅓ dose (2.5-<8.85 mg)): 4
Somnolence, n of subjects (Lower ⅓ dose (2.5-<8.85 mg)): 0
Suspected drug-related AEs, % of subjects (Lower ⅓ dose (2.5-<8.85 mg)): (59.1) %
Suspected drug-related AEs, n of subjects (Lower ⅓ dose (2.5-<8.85 mg)): 13
Upper respiratory tract infection, % of subjects (Lower ⅓ dose (2.5-<8.85 mg)): (9.1) %
Upper respiratory tract infection, n of subjects (Lower ⅓ dose (2.5-<8.85 mg)): 2
Vomiting, % of subjects (Lower ⅓ dose (2.5-<8.85 mg)): (4.5) %
Vomiting, n of subjects (Lower ⅓ dose (2.5-<8.85 mg)): 1
Withdrawal due to TEAE, % of subjects (Lower ⅓ dose (2.5-<8.85 mg)): (13.6) %
Withdrawal due to TEAE, n of subjects (Lower ⅓ dose (2.5-<8.85 mg)): 3
Abdominal pain upper, n of subjects (Middle ⅓ dose (≧8.85-<13.5 mg)): 0
Any Serious TEAE, n (%) of subjects (Middle ⅓ dose (≧8.85-<13.5 mg)): 3 (13.6) n (%)
Any TEAE, % of subjects (Middle ⅓ dose (≧8.85-<13.5 mg)): (100.0) %
Any TEAE, n of subjects (Middle ⅓ dose (≧8.85-<13.5 mg)): 22
Arthralgia, % of subjects (Middle ⅓ dose (≧8.85-<13.5 mg)): (18.2) %
Arthralgia, n of subjects (Middle ⅓ dose (≧8.85-<13.5 mg)): 4
Asthenia, n of subjects (Middle ⅓ dose (≧8.85-<13.5 mg)): 0
Back pain, % of subjects (Middle ⅓ dose (≧8.85-<13.5 mg)): (9.1) %
Back pain, n of subjects (Middle ⅓ dose (≧8.85-<13.5 mg)): 2
Constipation, % of subjects (Middle ⅓ dose (≧8.85-<13.5 mg)): (13.6) %
Constipation, n of subjects (Middle ⅓ dose (≧8.85-<13.5 mg)): 3
Contusion, % of subjects (Middle ⅓ dose (≧8.85-<13.5 mg)): (13.6) %
Contusion, n of subjects (Middle ⅓ dose (≧8.85-<13.5 mg)): 3
Cough, n of subjects (Middle ⅓ dose (≧8.85-<13.5 mg)): 0
Deaths, n of subjects (Middle ⅓ dose (≧8.85-<13.5 mg)): 0
Diarrhoea, % of subjects (Middle ⅓ dose (≧8.85-<13.5 mg)): (4.5) %
Diarrhoea, n of subjects (Middle ⅓ dose (≧8.85-<13.5 mg)): 1
Dizziness, % of subjects (Middle ⅓ dose (≧8.85-<13.5 mg)): (4.5) %
Dizziness, n of subjects (Middle ⅓ dose (≧8.85-<13.5 mg)): 1
Dose interruption due to TEAE, % of subjects (Middle ⅓ dose (≧8.85-<13.5 mg)): (13.6) %
Dose interruption due to TEAE, n of subjects (Middle ⅓ dose (≧8.85-<13.5 mg)): 3
Dyspnoea, % of subjects (Middle ⅓ dose (≧8.85-<13.5 mg)): (13.6) %
Dyspnoea, n of subjects (Middle ⅓ dose (≧8.85-<13.5 mg)): 3
Ecchymosis, % of subjects (Middle ⅓ dose (≧8.85-<13.5 mg)): (9.1) %
Ecchymosis, n of subjects (Middle ⅓ dose (≧8.85-<13.5 mg)): 2
Epistaxis, % of subjects (Middle ⅓ dose (≧8.85-<13.5 mg)): (13.6) %
Epistaxis, n of subjects (Middle ⅓ dose (≧8.85-<13.5 mg)): 3
Fatigue, % of subjects (Middle ⅓ dose (≧8.85-<13.5 mg)): (31.8) %
Fatigue, n of subjects (Middle ⅓ dose (≧8.85-<13.5 mg)): 7
Gingival bleeding, % of subjects (Middle ⅓ dose (≧8.85-<13.5 mg)): (9.1) %
Gingival bleeding, n of subjects (Middle ⅓ dose (≧8.85-<13.5 mg)): 2
Headache, % of subjects (Middle ⅓ dose (≧8.85-<13.5 mg)): (40.9) %
Headache, n of subjects (Middle ⅓ dose (≧8.85-<13.5 mg)): 9
Insomnia, % of subjects (Middle ⅓ dose (≧8.85-<13.5 mg)): (13.6) %
Insomnia, n of subjects (Middle ⅓ dose (≧8.85-<13.5 mg)): 3
Migraine, % of subjects (Middle ⅓ dose (≧8.85-<13.5 mg)): (4.5) %
Migraine, n of subjects (Middle ⅓ dose (≧8.85-<13.5 mg)): 1
Mouth haemorrhage, n of subjects (Middle ⅓ dose (≧8.85-<13.5 mg)): 0
Nausea, % of subjects (Middle ⅓ dose (≧8.85-<13.5 mg)): (9.1) %
Nausea, n of subjects (Middle ⅓ dose (≧8.85-<13.5 mg)): 2
Pain in extremity, % of subjects (Middle ⅓ dose (≧8.85-<13.5 mg)): (9.1) %
Pain in extremity, n of subjects (Middle ⅓ dose (≧8.85-<13.5 mg)): 2
Petechiae, % of subjects (Middle ⅓ dose (≧8.85-<13.5 mg)): (4.5) %
Petechiae, n of subjects (Middle ⅓ dose (≧8.85-<13.5 mg)): 1
Platelet count increased, % of subjects (Middle ⅓ dose (≧8.85-<13.5 mg)): (9.1) %
Platelet count increased, n of subjects (Middle ⅓ dose (≧8.85-<13.5 mg)): 2
Serious TEAE Cerebrovascular accident, n (%) of subjects (Middle ⅓ dose (≧8.85-<13.5 mg)): 0 n (%)
Serious TEAE Chest pain, n (%) of subjects (Middle ⅓ dose (≧8.85-<13.5 mg)): 0 n (%)
Serious TEAE Diarrhoea, n (%) of subjects (Middle ⅓ dose (≧8.85-<13.5 mg)): 0 n (%)
Serious TEAE Haemorrhage intracranial, n (%) of subjects (Middle ⅓ dose (≧8.85-<13.5 mg)): 1 (4.5) n (%)
Serious TEAE Lethargy, n (%) of subjects (Middle ⅓ dose (≧8.85-<13.5 mg)): 1 (4.5) n (%)
Serious TEAE Mitral valve incompetence, n (%) of subjects (Middle ⅓ dose (≧8.85-<13.5 mg)): 0 n (%)
Serious TEAE Myocardial infarction, n (%) of subjects (Middle ⅓ dose (≧8.85-<13.5 mg)): 1 (4.5) n (%)
Serious TEAE Nausea, n (%) of subjects (Middle ⅓ dose (≧8.85-<13.5 mg)): 1 (4.5) n (%)
Serious TEAE Pelvic venous thrombosis, n (%) of subjects (Middle ⅓ dose (≧8.85-<13.5 mg)): 1 (4.5) n (%)
Serious TEAE Platelet count decreased, n (%) of subjects (Middle ⅓ dose (≧8.85-<13.5 mg)): 1 (4.5) n (%)
Serious TEAE Pneumonia, n (%) of subjects (Middle ⅓ dose (≧8.85-<13.5 mg)): 1 (4.5) n (%)
Serious TEAE Pyrexia, n (%) of subjects (Middle ⅓ dose (≧8.85-<13.5 mg)): 0 n (%)
Serious TEAE Thrombocytopenia, n (%) of subjects (Middle ⅓ dose (≧8.85-<13.5 mg)): 0 n (%)
Serious TEAE Transient ischaemic attack, n (%) of subjects (Middle ⅓ dose (≧8.85-<13.5 mg)): 1 (4.5) n (%)
Serious TEAE Vomiting, n (%) of subjects (Middle ⅓ dose (≧8.85-<13.5 mg)): 1 (4.5) n (%)
Serious TEAE, % of subjects (Middle ⅓ dose (≧8.85-<13.5 mg)): (13.6) %
Serious TEAE, SOC Blood and lymphatic system disorders, n (%) of subjects (Middle ⅓ dose (≧8.85-<13.5 mg)): 0 n (%)
Serious TEAE, SOC Cardiac disorders, n (%) of subjects (Middle ⅓ dose (≧8.85-<13.5 mg)): 1 (4.5) n (%)
Serious TEAE, SOC Gastrointestinal disorders, n (%) of subjects (Middle ⅓ dose (≧8.85-<13.5 mg)): 1 (4.5) n (%)
Serious TEAE, SOC General disorders and administration site conditions, n (%) of subjects (Middle ⅓ dose (≧8.85-<13.5 mg)): 0 n (%)
Serious TEAE, SOC Infections and infestations, n (%) of subjects (Middle ⅓ dose (≧8.85-<13.5 mg)): 1 (4.5) n (%)
Serious TEAE, SOC Investigations, n (%) of subjects (Middle ⅓ dose (≧8.85-<13.5 mg)): 1 (4.5) n (%)
Serious TEAE, SOC Nervous system disorders, n (%) of subjects (Middle ⅓ dose (≧8.85-<13.5 mg)): 2 (9.1) n (%)
Serious TEAE, SOC Vascular disorders, n (%) of subjects (Middle ⅓ dose (≧8.85-<13.5 mg)): 1 (4.5) n (%)
Serious TEAE, n of subjects (Middle ⅓ dose (≧8.85-<13.5 mg)): 3
Serious treatment-related TEAEs, % of subjects (Middle ⅓ dose (≧8.85-<13.5 mg)): (4.5) %
Serious treatment-related TEAEs, n of subjects (Middle ⅓ dose (≧8.85-<13.5 mg)): 1
Severe (grade 3-4) TEAEs, % of subjects (Middle ⅓ dose (≧8.85-<13.5 mg)): (22.7) %
Severe (grade 3-4) TEAEs, n of subjects (Middle ⅓ dose (≧8.85-<13.5 mg)): 5
Somnolence, n of subjects (Middle ⅓ dose (≧8.85-<13.5 mg)): 0
Suspected drug-related AEs, % of subjects (Middle ⅓ dose (≧8.85-<13.5 mg)): (68.2) %
Suspected drug-related AEs, n of subjects (Middle ⅓ dose (≧8.85-<13.5 mg)): 15
Upper respiratory tract infection, % of subjects (Middle ⅓ dose (≧8.85-<13.5 mg)): (4.5) %
Upper respiratory tract infection, n of subjects (Middle ⅓ dose (≧8.85-<13.5 mg)): 1
